# In ChEMBL document CHEMBL5230102, “Bicyclic polyprenylated acylphloroglucinols and their derivatives: structural modification, structure-activity relationship, biological activity and mechanism of action” (Eur J Med Chem, 2020):
# How the values were obtained:
# HCT-116 = test: Cytotoxicity against human HCT-116 cells assessed as inhibition of cell growth; type: functional, cell-based
# HeLa = test: Cytotoxicity against human HeLa cells assessed as inhibition of cell growth; type: functional, cell-based
# SGC-7901 = test: Cytotoxicity against human SGC-7901 cells assessed as inhibition of cell growth; type: functional, cell-based
# Staphylococcus aureus [1] = test: Antibacterial activity against methicillin resistant Staphylococcus aureus USA300; type: functional
# Staphylococcus aureus [2] = test: Antibacterial activity against Staphylococcus aureus; type: functional, organism-based
# Plasmodium falciparum = test: Antimalarial activity against Plasmodium falciparum; type: functional, organism-based
SMILES,IC50 (HCT-116) [µg/mL],IC50 (HeLa) [µg/mL],IC50 (SGC-7901) [µg/mL],MIC (Staphylococcus aureus [1]) [µg/mL],also measured
CC(C)=CCC/C(C)=C/C[C@@H]1C[C@]2(C/C=C(\C)CCC=C(C)C)C(=O)[C@@](CC=C(C)C)(C(=O)C(C(=O)c3ccc(O)c(O)c3)=C2O)C1(C)C,4.92,8.09,4.05,,
C=C(C)[C@H](CC=C(C)C)C[C@]12C[C@H](CC=C(C)C)C(C)(C)[C@](CC=C(C)C)(C(=O)C(C(=O)c3ccc(O)c(O)c3)=C1O)C2=O,,,,7,
CC(C)=CC[C@@H]1C[C@]23C[C@@H](CC=C(C)C)C(C)(C)[C@](CC=C(C)C)(C(=O)C(C(=O)c4ccc(O)c(O)c4)=C2OC1(C)C)C3=O,,,,> 30,
CC(C)=CCC/C(C)=C/C[C@]12C[C@@H](CC=C(C)C)C(C)(C)[C@](CC=C(C)C)(C(=O)C(C(=O)c3ccc(O)c(O)c3)=C1O)C2=O,8.6,11.7,5.48,,
CC(C)=CC[C@@H]1C[C@]2(CC=C(C)C)C(=O)[C@@](CC=C(C)C)(C(=O)C(C(=O)c3ccccc3)=C2O)C1(C)C,6.87,12,12,,
CC1(C)[C@H](Cc2ccccc2)C[C@@]2(Cc3ccccc3)C(=O)[C@]1(C)C(=O)C(C(=O)c1ccccc1)=C2O,,,,> 30,
CC(=O)C1=C(O)[C@@]2(CC=C(C)C)C[C@@H](CC=C(C)C)C(C)(C)[C@@](CC=C(C)C)(C1=O)C2=O,,,,1,
C=CC[C@@]12C[C@@H](CC=C(C)C)C(C)(C)[C@@](CC=C)(C(=O)C(C(C)=O)=C1O)C2=O,,,,2,
C=CC[C@@]12C(=O)C(C(=O)c3ccccc3)=C(O)[C@@](Cc3ccccc3)(C[C@@H](CC=C(C)C)C1(C)C)C2=O,,,,4,
CC(C)=CCC/C(C)=C/C[C@]12C(=O)CC(=O)[C@](CC=C(C)C)(C[C@@H](CC=C(C)C)C1(C)C)C2=O,10.9,11.7,8.5,,
CC(C)=CCC(=O)C1=C(O)[C@@]2(C)C[C@@H](CC=C(C)C)C(C)(C)[C@@](CC=C(C)C)(C1=O)C2=O,,,,4,
CC(C)=CC[C@@]12C[C@@H](Cc3ccccc3)C(C)(C)[C@@](C)(C(=O)C(C(=O)c3ccccc3)=C1O)C2=O,,,,> 30,
CC(C)=CC[C@@]12C[C@@H](Cc3ccccc3)C(C)(C)[C@@](CC=C(C)C)(C(=O)C(C(=O)c3ccccc3)=C1O)C2=O,,,,4,
C=CC[C@@]12C[C@@H](CC=C(C)C)C(C)(C)[C@@](CC=C)(C(=O)C(C(=O)C(C)C)=C1O)C2=O,,,,2,
CC(C)=CCC/C(C)=C/C[C@]12C[C@@H](CC=C(C)C)C(C)(C)[C@](C/C=C(\C)CCC=C(C)C)(C(=O)CC1=O)C2=O,> 20,> 20,> 20,,
C=CC[C@@]12C(=O)C(C(=O)C(C)C)=C(O)[C@@](Cc3ccccc3)(C[C@@H](CC=C(C)C)C1(C)C)C2=O,,,,1,
C=CC[C@@]12C(=O)C(C(C)=O)=C(O)[C@@](Cc3ccccc3)(C[C@@H](CC=C(C)C)C1(C)C)C2=O,,,,1,

SMILES,IC50 (HCT-116) [µg/mL],IC50 (HeLa) [µg/mL],IC50 (SGC-7901) [µg/mL],MIC (Staphylococcus aureus [1]) [µg/mL],also measured
CC(C)=CC[C@@H]1C[C@@]2(Cc3ccccc3)C(=O)[C@](C)(C(=O)C(C(=O)c3ccccc3)=C2O)C1(C)C,,,,> 30,
CC(C)=CC[C@@]12C(=O)C(C(=O)c3ccccc3)=C(O)[C@@](Cc3ccccc3)(C[C@@H](Cc3ccccc3)C1(C)C)C2=O,,,,4,
CC(=O)C1=C(O)[C@@]2(Cc3ccccc3)C[C@@H](CC=C(C)C)C(C)(C)[C@@](CC=C(C)C)(C1=O)C2=O,,,,0.5,
CC(C)=CCC/C(C)=C/C[C@@H]1C[C@@]2(CC=C(C)C)C(=O)CC(=O)[C@](CC=C(C)C)(C2=O)C1(C)C,9.14,9.69,6.89,,
CC(C)=CCC/C(C)=C/C[C@]12C[C@@H](CC=C(C)C)C(C)(C)[C@](CC=C(C)C)(C(=O)CC1=O)C2=O,6.46,6.64,5.6,,
CC(C)=CC[C@@H]1C[C@@]2(CC=C(C)C)C(=O)[C@](CC=C(C)C)(C(=O)C(C(=O)C(C)C)=C2O)C1(C)C,,,,2,
CC(C)=CC[C@H]1C[C@@]2(CC=C(C)C)C(=O)c3c(oc4cc(O)c(O)cc4c3=O)[C@](CC=C(C)C)(C2=O)C1(C)C,5.96,7.65,7.65,,
CC(C)=CC[C@@H]1C[C@@]2(Cc3ccccc3)C(=O)[C@](CC=C(C)C)(C(=O)C(C(=O)c3ccccc3)=C2O)C1(C)C,,,,1,
CC(C)=CCC(=O)C1=C(O)[C@@]2(Cc3ccccc3)C[C@@H](CC=C(C)C)C(C)(C)[C@@](CC=C(C)C)(C1=O)C2=O,,,,2,
CC(C)=CCC/C(C)=C/C[C@@H]1C[C@@]2(C/C=C(\C)CCC=C(C)C)C(=O)CC(=O)[C@](CC=C(C)C)(C2=O)C1(C)C,> 20,> 20,> 20,,
CC(C)=CCC1=C(O)[C@@]2(C(=O)c3ccccc3)C(=O)[C@](CC=C(C)C)(C[C@H](CC=C(C)C)C2(C)C)C1=O,,,,,IC50 (Staphylococcus aureus [2]): < 1000 nM; IC50 (Plasmodium falciparum): < 1000 nM
CC(C)=CC[C@H]1C[C@@]2(CC=C(C)C)C(=O)c3c(oc4c(O)c(O)ccc4c3=O)[C@](CC=C(C)C)(C2=O)C1(C)C,2.44,4.69,4.69,,
CC(C)=CC[C@@H]1C[C@@]2(CC=C(C)C)C(=O)[C@](C)(C(=O)C(C(=O)c3ccccc3)=C2O)C1(C)C,,,,> 30,
CC(C)=CC[C@@H]1C[C@]2(CC=C(C)C)C(=O)C(C(=O)c3ccccc3)=C3O[C@H](C(C)(C)O)C[C@]3(C2=O)C1(C)C,,,,4,
CC(C)=CC[C@@H]1C[C@@]2(CC=C(C)C)C(=O)[C@](CC=C(C)C)(C(=O)C(C(=O)c3ccccc3)=C2O)C1(C)C [CLUSIANONE],,,,1,
CC(C)=CCC/C(C)=C/C[C@]12C[C@@H](CC=C(C)C)C(C)(C)[C@](C/C=C(\C)CCC=C(C)C)(C(=O)C(C(=O)c3ccc(O)c(O)c3)=C1O)C2=O [GUTTIFERONE O],> 20,> 20,> 20,,
CC(C)=CCC/C(C)=C/C[C@@H]1C[C@]2(CC=C(C)C)C(=O)[C@@](CC=C(C)C)(C(=O)C(C(=O)c3ccc(O)c(O)c3)=C2O)C1(C)C [OBLONGIFOLIN B],> 20,> 20,> 20,,
